Experiment [1] has as its target T1, rat mGluR1a receptor (Rattus norvegicus, UniProt P23385).
T1 construct: expressed in transfected cells; host or cells: HEK 293 cells (transient transfection), membrane preparation
The experiment is described as follows: binding assay for the characterization of mGluR 1 antagonistic properties (tritiated radioligand displacement). The settings on record: membranes from HEK 293 cells transfected with rat mGluR1a; tritiated 1-ethyl-2-methyl-6-oxo-4-(1,1,2-tritritio-1,2,4,5-tetrahydro-benzo[d]azepin-3-yl)-1,6-dihydro-pyrimidine-5-carbonitrile at 3 nM; 1 hour at room temperature; read-out: B-IC 50. As to the method: b) binding assay for the characterization of mGluR 1 antagonistic properties
Binding assay with tritiated 1-ethyl-2-methyl-6-oxo-4-(1,1,2-tritritio-1,2,4,5-tetrahydro-benzo[d]azepin-3-yl)-1,6-dihydro-pyrimidine-5-carbonitrile: HEK 293 cells were transiently transfected with the rat mGluR1a receptor. The cells were collected and washed 3 times with PBS. The cell pellets were frozen at -80 °C. Membranes were prepared from HEK 293 cells transfected with the rat mGluR1a receptor and used in the binding experiments at 10 µg proteins per assay after resuspension in a HEPES NaOH 20mM, pH=7.4 binding buffer. 1-Ethyl-2-methyl-6-oxo-4-(1,1,2-tritritio-1,2,4,5-tetrahydro-benzo[d]azepin-3-yl)-1,6-dihydro-pyrimidine-5-carbonitrile (S.A 33.4Ci/mmol) was used at 3 nM final concentration. The incubation with variable concentrations of potential inhibitors was performed for 1 hour at room temperature, the incubate was then filtered onto GF/B glass fiber filter preincubated 1 hour in PEI 0,1% and washed 3 times with 1ml of cold binding buffer. The radioactivity retained on the unifilter 96 was counted using a Topcount β counter. After correction for non specific binding the data were normalized and the IC50 value calculated using a 4 parameters logistic equation which was fitted to the inhibition curve.
In general terms: Displacement assays read how much labelled ligand stays bound in the presence of the test substance.

In experiment [2] the target is T1, rat mGluR1a receptor. The experiment in a line: functional assay for the characterization of mGluR 1 antagonistic properties ([Ca2+]i measurement, FLIPR). The settings on record: mGluR1a transfected HEK-EBNA cells; 10 µM glutamate as agonist; antagonists applied 5 minutes prior to agonist; read-out: F-IC 50. It counts as cell-based. As to the method: a) functional assay for the characterization of mGluR 1 antagonistic properties
cDNA encoding rat mGluR1a receptor obtained from Prof. S. Nakanishi (Kyoto, Japan) was transiently transfected into HEK-EBNA cells using a procedure described by Schlaeger et. al., New Dev. New Appl. Anim. Cell Techn., Proc. ESACT Meet., 15th ( 1998), 105-112 and 117-120. [Ca^2+]i measurements were performed on mGluR1a transfected HEK-EBNA cells after incubation of the cells with Fluo-3 AM (0.5 µM final concentration) for 1 hour at 37 °C followed by 4 washes with assay buffer (DMEM supplemented with Hank's salt and 20 mM HEPES. [Ca^2+]i measurements were done using a fluorometric imaging plate reader (FLIPR, Molecular Devices Corporation, La Jolla, CA, USA). 10 µM glutamate as agonist was used to evaluate the potency of the antagonists.
Increasing concentrations of antagonists were applied to the cells 5 minutes prior to the application of the agonist. The inhibition (antagonists) curves were fitted with a four parameter logistic equation giving IC50, and Hill coefficient using the iterative nonlinear curve fitting software Origin (Microcal Software Inc., Northampton, MA, USA).

Molecules are shown by their SMILES.

T1 sequence (P23385 19-1199): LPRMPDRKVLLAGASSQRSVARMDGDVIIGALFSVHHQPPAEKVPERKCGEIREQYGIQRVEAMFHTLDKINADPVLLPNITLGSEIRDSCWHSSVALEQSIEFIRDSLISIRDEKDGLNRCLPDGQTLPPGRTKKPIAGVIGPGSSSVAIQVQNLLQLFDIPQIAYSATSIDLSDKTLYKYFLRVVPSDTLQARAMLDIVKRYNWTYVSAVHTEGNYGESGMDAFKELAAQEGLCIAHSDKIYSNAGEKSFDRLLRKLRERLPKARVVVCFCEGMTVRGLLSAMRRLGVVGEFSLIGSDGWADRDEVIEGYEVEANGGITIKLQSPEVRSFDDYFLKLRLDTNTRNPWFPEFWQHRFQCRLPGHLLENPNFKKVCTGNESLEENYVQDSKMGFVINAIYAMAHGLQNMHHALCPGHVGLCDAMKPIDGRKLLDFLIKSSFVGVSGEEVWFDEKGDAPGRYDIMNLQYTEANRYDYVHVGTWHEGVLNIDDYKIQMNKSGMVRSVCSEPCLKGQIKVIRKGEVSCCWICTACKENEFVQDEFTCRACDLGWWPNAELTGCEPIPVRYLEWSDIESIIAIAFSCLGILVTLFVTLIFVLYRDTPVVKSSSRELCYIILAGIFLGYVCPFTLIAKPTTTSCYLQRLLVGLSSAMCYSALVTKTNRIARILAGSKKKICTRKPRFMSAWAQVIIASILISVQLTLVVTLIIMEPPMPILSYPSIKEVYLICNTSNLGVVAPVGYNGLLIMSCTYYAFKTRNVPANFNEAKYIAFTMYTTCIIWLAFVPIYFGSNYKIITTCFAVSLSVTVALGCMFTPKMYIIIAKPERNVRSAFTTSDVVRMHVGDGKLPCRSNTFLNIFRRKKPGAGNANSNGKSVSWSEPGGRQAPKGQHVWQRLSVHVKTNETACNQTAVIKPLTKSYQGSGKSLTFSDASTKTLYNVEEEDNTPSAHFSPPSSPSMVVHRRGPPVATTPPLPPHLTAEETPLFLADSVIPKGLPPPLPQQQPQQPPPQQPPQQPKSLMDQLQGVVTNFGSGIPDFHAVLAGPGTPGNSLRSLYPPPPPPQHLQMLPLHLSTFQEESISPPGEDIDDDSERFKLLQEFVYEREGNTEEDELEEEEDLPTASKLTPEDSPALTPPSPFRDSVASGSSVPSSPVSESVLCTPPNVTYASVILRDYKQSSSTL

In the case of `Cc1nc(N2CCc3ccccc3CC2)c([N+](=O)[O-])c(=O)n1CC(F)(F)F` [Example 11, 2-Methyl-5-nitro-6-(1,2,4,5-tetrahydro-benzo[d]azepin-3-yl)-3-(2,2,2-trifluoro-ethyl)-3H-pyrimidin-4-one], the IC50 at rat mGluR1a receptor [1] stood at 18 nM; at rat mGluR1a receptor [2], 8 nM.

Take `Cc1nc(N2CCc3ccccc3CC2)c(C#N)c(=O)[nH]1` [Example 17, 2-Methyl-6-oxo-4-(1,2,4,5-tetrahydro-benzo[d]azepin-3-yl)-1,6-dihydro-pyrimidine-5-carbonitrile]: the results for the IC50 on rat mGluR1a receptor [1] and at rat mGluR1a receptor [2] were 330 nM and 88 nM, respectively.

In the case of `CCNc1nc(N2CCc3ccccc3CC2)c(C#N)c(=O)[nH]1` [Example 25, 2-Ethylamino-6-oxo-4-(1,2,4,5-tetrahydro-benzo[d]azepin-3-yl)-1,6-dihydro-pyrimidine-5-carbonitrile], the IC50 on rat mGluR1a receptor [1] amounted to 15 nM; on rat mGluR1a receptor [2] it was 5 nM.

As for `CCn1c(N)nc(N2CCc3ccccc3CC2)c(C#N)c1=O` [Example 30, 2-Amino-1-ethyl-6-oxo-4-(1,2,4,5-tetrahydro-benzo[d]azepin-3-yl)-1,6-dihydro-pyrimidine-5-carbonitrile], the IC50 on rat mGluR1a receptor [1] amounted to 3 nM; at rat mGluR1a receptor [2], 9 nM.

As for `Cc1nc(N2CCc3ccccc3CC2)c(C#N)c(=O)n1CC(F)(F)F` [Example 78, 2-Methyl-6-oxo-4-(1,2,4,5-tetrahydro-benzo[d]azepin-3-yl)-1-(2,2,2-trifluoro-ethyl)-1,6-dihydro-pyrimidine-5-carbonitrile], the IC50 on rat mGluR1a receptor [1] is 11 nM; at rat mGluR1a receptor [2], 26 nM.

In the case of `N#Cc1c(N2CCc3ccccc3CC2)nc2n(c1=O)CCC2` [Example 126, 4-Oxo-2-(1,2,4,5-tetrahydro-benzo[d]azepin-3-yl)-4,6,7,8-tetrahydro-pyrrolo[1,2-a]pyrimidine-3-carbonitrile], the IC50 at rat mGluR1a receptor [1] stood at 720 nM; at rat mGluR1a receptor [2], 100 nM.

In the case of `CCn1c(C)nc(N2CCc3ccc(F)cc3CC2)c([N+](=O)[O-])c1=O` [Example 132, 3-Ethyl-6-(7-fluoro-1,2,4,5-tetrahydro-benzo[d]azepin-3-yl)-2-methyl-5-nitro-3H-pyrimidin-4-one], the IC50 at rat mGluR1a receptor [1] is 80 nM; at rat mGluR1a receptor [2], 14 nM.

Turning to `CCn1c(NC=O)nc(N2CCc3ccccc3CC2)c(C#N)c1=O` [Example 154, N-[5-cyano-1-ethyl-6-oxo-4-(1,2,4,5-tetrahydro-benzo[d]azepin-3-yl)-1,6-dihydro-pyrimidin-2-yl]-formamide], the results for the IC50 on rat mGluR1a receptor [1] and at rat mGluR1a receptor [2] were 10 nM and 210 nM, respectively.

On to `N#Cc1c(OCC(F)(F)F)nc(NCCCN2CCOCC2)nc1N1CCc2ccccc2CC1` [Example 174, 2-(3-Morpholin-4-yl-propylamino)-4-(1,2,4,5-tetrahydro-benzo[d]azepin-3-yl)-6-(2,2,2-trifluoro-ethoxy)-pyrimidine-5-carbonitrile], for which the IC50 on rat mGluR1a receptor [1] is 88 nM; on rat mGluR1a receptor [2], 970 nM.

With `N#Cc1c(OCC(F)(F)F)nc(NCCO)nc1N1CCc2ccccc2CC1` [Example 190, 2-(2-Hydroxy-ethylamino)-4-(1,2,4,5-tetrahydro-benzo[d]azepin-3-yl)-6-(2,2,2-trifluoro-ethoxy)-pyrimidine-5-carbonitrile], the IC50 at rat mGluR1a receptor [1] came to 7 nM; on rat mGluR1a receptor [2], 200 nM.

Regarding `CNn1c(C)nc(N2CCc3ccccc3CC2)c(C#N)c1=O` [Example 214, 2-Methyl-1-methylamino-6-oxo-4-(1,2,4,5-tetrahydro-benzo[d]azepin-3-yl)-1,6-dihydro-pyrimidine-5-carbonitrile], the IC50 at rat mGluR1a receptor [1] is 20 nM; on rat mGluR1a receptor [2] it was 120 nM.

Regarding `Cc1nc(N2CCc3ccccc3CC2)c(C#N)c(=O)n1OCC(F)(F)F` [Example 220, 2-Methyl-6-oxo-4-(1,2,4,5-tetrahydro-benzo[d]azepin-3-yl)-1-(2,2,2-trifluoro-ethoxy)-1,6-dihydro-pyrimidine-5-carbonitrile], the IC50 on rat mGluR1a receptor [1] was found to be 2 nM; at rat mGluR1a receptor [2], 38 nM.

Regarding `CSc1nc(N)nc(N2CCc3ccccc3CC2)c1C#N` [Example 249, 2-Amino-4-methylsulfanyl-6-(1,2,4,5-tetrahydro-benzo[d]azepin-3-yl)-pyrimidine-5-carbonitrile], the IC50 stood at 11 nM on rat mGluR1a receptor [1] and 23 nM on rat mGluR1a receptor [2].

For the origin of these results see patent EP1074549B1, “Tetrahydro-benzo(d)azepines and their use as antagonists at metabotropic glutamate receptors” (F. HOFFMANN-LA ROCHE AG, priority 1999, dated 2001).
